Values joined by “and” are separate entries in the source; they are usually repeats but may differ in a detail not shown here. Identical values can stand only once. Like-named read-outs stand apart in the source and are kept apart here.
Legend:
[1] = In vitro Neutral Red cytotoxicity assay, MRC-5; assay type: cell-based, human; conditions: human
Text: (§1) No effect due to the DMSO was observed. Doxorubicin was used as the positive control. The well containing untreated cells was the negative control.
(§2) Cytotoxicity of each sample is expressed as IC50 value.

[2] = tested on: human hormone-dependent breast carcinoma cell line (MCF7); experiment: In vitro Neutral Red cytotoxicity assay, MCF7; assay type: cell-based; conditions: for IC50: read-out: Cytotoxicity (IC50) MCF7
Text: The well containing untreated cells was the negative control.
as §2

[3] = tested on: human nasopharyngeal epidermoid carcinoma cell line (KB); experiment: In vitro Neutral Red cytotoxicity assay, KB; assay type: cell-based; conditions: 72 h; for IC50: read-out: Cytotoxicity (IC50) KB
Text: as §1, §2

[4] = tested on: human colon carcinoma cell line (HCT 116); experiment: In vitro Neutral Red cytotoxicity assay, HCT 116; assay type: cell-based; conditions: for IC50: read-out: Cytotoxicity (IC50) HCT 116
Text: as §1, §2

[5] = tested on: human lung carcinoma cell line (A549); experiment: In vitro Neutral Red cytotoxicity assay, A549; conditions: for IC50: read-out: Cytotoxicity (IC50) A549
Protocol: The in vitro cytotoxicity assay was carried out using a Neutral Red cytotoxicity assay as previously described by Borenfreund and Puerner with some modifications; this test determines the accumulation of the Neutral Red dye in the lysosomes of viable and uninjured cells.
Human nasopharyngeal epidermoid carcinoma cell line (KB), human cervical carcinoma cell line (CasKi), human colon carcinoma cell line (HCT 116), human hormone-dependent breast carcinoma cell line (MCF7), human lung carcinoma cell line (A549) and non-cancer human fibroblast cell line (MRC-5) were purchased from the American Tissue Culture Collection (ATCC, USA). KB cells were maintained in Medium 199 (Sigma), CasKi, A549 and MCF7 cells in RPMI 1640 medium (Sigma), HCT 116 in McCOY’S 5A Medium (Sigma) and MRC-5 cells in EMEM (Eagle Minimum Essential Medium) (Sigma), supplemented with 10% foetal bovine serum (FBS, PAA Lab, Austria), 100 µg/mL penicillin or streptomycin (PAA Lab, Austria) and 50 µg/mL of fungizone (PAA Lab, Austria). The cells were cultured in a 5% CO2 incubator (Shel Lab water-jacketed) kept at 37°C in a humidified atmosphere.
The Neutral Red cytotoxicity assay is based on the initial protocol described by Borenfreund and Puerner with some modifications. Briefly, the cells (1x10^4/well) were seeded in 96-well microtiter plates (Nunc) and allowed to grow for 24 hours before treatment. After 24 hours of incubation, the cells were treated with six different concentrations (0.1-100 µg/mL) of test compounds, in three replicates. The plates were further incubated for 72 h at 37°C in a 5% CO2 incubator. A stock solution was initially obtained by dissolving the test compounds in DMSO. Further dilution to different tested concentrations were then carried out ensuring that the final concentration of DMSO in the test and control wells was not in excess of 1% (v/v). […] The well containing untreated cells was the negative control. At the end of the incubation period, the media were replaced with medium containing 50 µg/mL of Neutral Red. The plates were incubated for another 3 hours to allow for uptake of the vital dye into the lysosomes of viable and […] cells. After the incubation period, the media were removed and cells were washed with the neutral red washing solution. The dye was eluted from the cells by adding 200 µL of Neutral Red resorb solution and incubated for 30 minutes at room temperature with rapid agitation on a microtiter plate shaker. Dye absorbance was measured at 540 nm using a spectrophotometer ELISA plate reader. The average data from triplicates were expressed in terms of killing percentage relative to negative control. The percentage of inhibition (%) of each of the test samples was calculated according to the following formula: [drawing 1] where OD control: Optical Density of negative control; OD sample: Optical Density of sample
Cytotoxicity of each sample is expressed as IC50 value. The IC50 value is the concentration of test compounds that cause 50 % inhibition or cell death, averaged from the three experiments, and was obtained by plotting the percentage inhibition versus concentration of test compounds. […] However, we recognized that whether an IC50 value corresponds to a significant or non-significant cytotoxicity depends on the sensitivity of the cell line.

[6] = tested on: human cervical carcinoma cell line (CasKi); experiment: In vitro Neutral Red cytotoxicity assay, CasKi; assay type: cell-based; conditions: 72 h; for IC50: read-out: Cytotoxicity (IC50) CasKi
Text: as §1, §2

[7] = tested on: non-cancer human fibroblast cell line (MRC-5); experiment: In vitro Neutral Red cytotoxicity assay, MRC-5; assay type: cell-based; conditions: MRC-5 cells, 72 h
Text: as §1, §2

[8] = MRC-5 cells (non-cancer fibroblast cell line)
[9] = MRC-5 cells (non-cancer fibroblast cell line), value in parentheses
[10] = Homo sapiens, MCF7 cells, 72 h, Neutral Red
[11] = Homo sapiens, MCF7 cells, 72 h, Neutral Red, value in parentheses
[12] = Homo sapiens, KB cells, Neutral Red
[13] = Homo sapiens, KB cells, Neutral Red, value in parentheses
[14] = Homo sapiens, HCT 116 cells, 72 h, Neutral Red
[15] = Homo sapiens, HCT 116 cells, 72 h, Neutral Red, value in parentheses
[16] = Homo sapiens, Ca-Ski, CasKi cells, Neutral Red
[17] = Homo sapiens, Ca-Ski, CasKi cells, Neutral Red, value in parentheses

Row | Compound | IC50 at 72 h [1, 8] | IC50 at 72 h [1, 9] | IC50 [2, 10] | IC50 [2, 11] | IC50 [3, 12] | IC50 [3, 13] | IC50 [4, 14] | IC50 [4, 15] | IC50 ([5]; Homo sapiens, A549, 72 h) | IC50 [6, 16] | IC50 [6, 17] | also measured
1 | CC(C)(C)c1ccc(O)c(C(C)(C)C)c1 [2,4-di tert butylphenol (5), 2,4-di-tert-butylphenol] | 20 µg/mL | 97.1 µM | 5.75 µg/mL | 27.9 µM | 0.81 µg/mL | 3.93 µM | 29 µg/mL | 141 µM | 6 µg/mL and 29.1 µM | 4.5 µg/mL | 21.8 µM | –
2 | Cc1c(C)c2c(c(C)c1O)CC[C@@](C)(CCC[C@H](C)CCC[C@H](C)CCCC(C)C)O2 [α-tocopherol (6), α-tocopherol] | 30.5 µg/mL | 70.9 µM | 7.5 µg/mL | 17.4 µM | 8 µg/mL | 18.6 µM | 31 µg/mL | 72.1 µM | 6 µg/mL and 13.9 µM | 6 µg/mL | 14 µM | –
3 | COc1cccc2c1C(=O)c1c(O)c3c(c(O)c1C2=O)C[C@@](O)(C(=O)CO)C[C@@H]3O[C@H]1C[C@H](N)[C@H](O)[C@H](C)O1 [Doxorubicin, reference compound] | 0.55 µg/mL | 1.01 µM | – | – | 0.013 µg/mL | 0.023 µM | 0.36 µg/mL | 0.663 µM | 0.22 µg/mL and 401 nM | 0.006 µg/mL | 0.011 µM | –
4 | CC1(C)CCCC2(C)OC(=O)C=C12 (stereo not shown) [Dihydroactinidiolide (1), Dihydroactinidiolide] | 91.3 µg/mL | 507 µM | 30 µg/mL | 167 µM | 6.7 µg/mL | 37.2 µM | 5 µg/mL | 27.8 µM | 97 µg/mL and 539 µM | 40 µg/mL | 222 µM | –
5 | CC[C@H](CC[C@@H](C)[C@H]1CC[C@H]2[C@@H]3CC=C4C[C@@H](O)CC[C@]4(C)[C@H]3CC[C@]12C)C(C)C [β -sitosterol (4), β-sitosterol] | – | – | – | – | – | – | – | – | 78 µg/mL and 188 µM | – | – | IC50 at 72 h ([1]; MRC-5 cells): > 100 µg/mL; IC50 at 72 h ([1]; MRC-5 cells, value in parentheses): > 242 µM; IC50 ([2]; Homo sapiens, MCF7, 72 h): 72 µg/mL and 174 µM; IC50 ([3]; Homo sapiens, KB): > 100 µg/mL and > 242 µM; IC50 ([4]; Homo sapiens, HCT-116, 72 h): > 100 µg/mL and > 242 µM; IC50 ([6]; Homo sapiens, Ca-Ski): 62 µg/mL and 150 µM
6 | phytol [Phytol (7)] | – | – | – | – | – | – | – | – | – | – | – | Cytotoxicity (IC50) MRC-5 [7]: 74.3 µg/mL; IC50 ([7]; value in parentheses): 251 µM; Cytotoxicity (IC50) MCF7 ([2]; MCF7 cells, 72 h, Neutral Red): 34 µg/mL; IC50 ([2]; MCF7 cells, 72 h, Neutral Red, value in parentheses): 115 µM; Cytotoxicity (IC50) KB ([3]; KB cells, Neutral Red): 7.1 µg/mL; IC50 ([3]; KB cells, Neutral Red, value in parentheses): 24 µM; Cytotoxicity (IC50) HCT 116 ([4]; HCT 116 cells, 72 h, Neutral Red): 100 µg/mL; IC50 ([4]; HCT 116 cells, 72 h, Neutral Red, value in parentheses): 338 µM; Cytotoxicity (IC50) A549 ([5]; A549 cells, 72 h, Neutral Red): 31 µg/mL; IC50 ([5]; A549 cells, 72 h, Neutral Red, value in parentheses): 105 µM; Cytotoxicity (IC50) CasKi ([6]; CasKi cells, Neutral Red): 18 µg/mL; IC50 ([6]; CasKi cells, Neutral Red, value in parentheses): 60.8 µM
